# Test results from PMC6452685, “Lysyl-tRNA synthetase as a drug target in malaria and cryptosporidiosis” (Proceedings of the National Academy of Sciences of the …, 2019).
# Where two headings read alike, the source gives them in different places.
# Columns and labels:
# [1] = molecular target: T1, CYP3A4 (Homo sapiens, UniProt P08684); test: Fluorescence-based CYP inhibition, CYP3A4; format: in vitro ADME
# T1 construct: purchased Cypex, Dundee, UK; host or cells: bacterial membranes (bactosomes)
# Description: 4.7 F lu or e s ce nce-based CYP I nhibition usin g recombinantly expressed CYP b actosomes Fl uorogeni c C YP i nhi bi t i on s t udi es w ere c ondu ct ed at 37 °C i n 96-well, flat-bot t om, cl ear p ol y s t y rene pl at es. I ncubat i on mi xt ures cont ai ni ng Eas y C YP bact os omes (1000 pmol /ml , 10 mg /ml C y pex TM, Dundee, UK), fl uorogeni c substrate (Cypex TM) and 50 mM potas s i um phosphat e buffer (p H 7. 4) w er e prepared at t he fol l ow i ng fi nal concent rat i ons : C YP1A2, 5 pmol /ml + 35 µ M et hox y res orufi n (ER) ; CYP2C9, 10 pm ol/ml + 30 µM 7-methoxy-4-(tri fl uo romethy l )-coumari n (MFC ); C YP 2C 19, 5 pm ol /ml + 25 µM 3-cy ano-7-eth oxycoumarin (CEC); C YP 2D 6, 10 pmol /ml + 6 µM 7-meth oxy-4-(ami nomethy l )- coumari n (MAMC ); C YP 3A4, 10 pmol /ml + 1 µM diethoxyfluorescein (DEF) and 10 pmol /ml + 15 µM 7-benz y l ox y qui nol i ne (BQ ). […] 0125 ( 1A2 and 2C 9 onl y ) o r 0. 025 mg /ml (al l ot her i s oforms ). […] Positive control inhibitor, miconazole, was prepared as a 500 µM s olution in DMSO and similarly diluted.
# For eac h i sofo rm, 2 20 µl of i ncubati on mi x was added to each wel l of a 96-well, flat-bot t om, cl ear pol y s t y rene pl at e. Al i quot s (5 µl) of each compound 5 conce ntrati on was then mi x ed wi th 220 µl of the incubation mix and pre-incubated at 37 °C for 5 min (final test compound concentration range: […]
# [2] = test system: P. vivax liver schizonts/hypnozoites; test: P. vivax liver schizonts/hypnozoites (prophylactic mode); format: cell-based; conditions: Plasmodium vivax
# Description: Thi s i s bas ed on met hods prev i ous l y report ed (12 ). In bri ef, HepG 2-A1 6-CD81EGFP cel l s were cul tured at 3 7 °C i n 5% C O2 in DMEM me dia. For both P. berghei-Luc and HepG2 cytotoxi ci ty assays, 3x 10**3 of the HepG2-A16-CD81EGFP20 cells in 5 µl of assay medi um (DMEM wi thout Phenol Red (Li fe Techn ol ogi es, CA), 5% FBS, and 5x Pen Stre p Gl utami ne (Li fe Techn ol ogi es, CA)) at concentrati o n 6x 10**5 cel l s /ml were s eeded i n white s oli d bottom 153 6-well pl at es (cus t om G NF mol d ref# 7891 73-F, Grei ner Bi o-One), 2 0-26 h prior to sporozoites infection. […]
# pri or t o i nfect i on 5 0 nl of comp ounds i n 1:3 s eri al di l ut i ons in DMSO (0. 5% fi nal DMSO concentrati on per w el l ) w ere t rans ferred w i t h an Acous ti c Trans fer Sy s t em (ATS) (Bi os ero) t o the cells. Atovaquone (5µ M) and pu romy ci n (1 0 µM) at a single concentration were used as pos i t i v e cont rol s for the Pbluc and He pG 2tox , res pecti v el y . 0. 5% DMSO was us ed as neg ati v e control for both as s ay s . […]
# […] Immediately after addition of the luminescence reagent, the luminescence was measured by the Env i s i on M ul t il abel Reader (Perk i nEl mer). […]
# Thi s is a modification of the previously reported method (13). […]
# T1 sequence (P08684 whole entry): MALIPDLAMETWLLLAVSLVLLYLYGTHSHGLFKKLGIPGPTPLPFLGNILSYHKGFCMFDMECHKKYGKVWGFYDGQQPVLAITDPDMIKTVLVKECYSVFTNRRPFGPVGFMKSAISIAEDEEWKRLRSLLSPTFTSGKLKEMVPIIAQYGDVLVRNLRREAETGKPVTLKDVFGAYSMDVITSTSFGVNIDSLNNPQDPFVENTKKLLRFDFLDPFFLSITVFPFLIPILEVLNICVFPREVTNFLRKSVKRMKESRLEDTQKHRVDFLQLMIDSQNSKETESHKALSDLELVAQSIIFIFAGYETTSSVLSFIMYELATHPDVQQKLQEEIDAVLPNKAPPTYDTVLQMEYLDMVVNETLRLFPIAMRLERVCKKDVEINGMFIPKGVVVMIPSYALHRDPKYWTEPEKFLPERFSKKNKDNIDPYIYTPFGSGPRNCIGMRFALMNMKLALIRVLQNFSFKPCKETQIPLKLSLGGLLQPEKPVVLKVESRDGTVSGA
smiles,measurement,setting,value
O=C(NCC1(O)CCC(F)(F)CC1)c1cc(=O)c2cc(F)ccc2o1 [Compound 5],IC50,[1],> 10 µM
same,EC50,"[2]; hypnozoites, read-out: P. vivax hypnozoites EC50 (prophylactic mode)",> 10 µM
same,EC50,"[2]; liver schizonts, read-out: P. vivax liver schizonts EC50 (prophylactic mode)",0.95 µM
